Assay results from paper PMC10096376, “Insecticidal and Synergistic Potential of Three Monoterpenoids against the Yellow Fever Mosquito, Aedes aegypti (Diptera: Culicidae), and the House Fly, Musca domestica (Diptera: Muscidae)” (Molecules, 2023).
Values joined by “and” are separate entries in the source; they are usually repeats but may differ in a detail not shown here. Identical values can stand only once. Like-named read-outs stand apart in the source and are kept apart here.

Experiments:
Musca domestica [1] = experiment: Co-toxicity assay with permethrin (topical); format: in vivo; conditions: for 1-h% Mean Knockdown ± SEM, Synergist Alone / 24-h% Mean Mortality ± SEM, Synergist Alone: 10.2 μg PBO, 70 μg carvone, 190 μg menthone, 80 μg fenchone per fly; for times as potent a synergist of permethrin as PBO: 24-h mortality; for 1-h% Mean Knockdown ± SEM, Mixture: near-sublethal synergist dose (10.2 μg PBO, 70 μg carvone, 190 μg menthone, 80 μg fenchone) + permethrin 18 ng; for 1-h knockdown Co-Toxicity Factor / 24-h mortality Co-Toxicity Factor: near-sublethal synergist dose + permethrin, >+20 potentiation, <−20 antagonism, −20 to +20 additive
Method: […]. Each dose was formulated in a total volume of 1.5 mL of acetone. A dose of permethrin that produced approximately 50% mortality (18 ng) was used as the treatment. Female flies were sorted into groups of 20 per synergism assay and dosed as previously mentioned (i.e., the same way as in the topical toxicity assays). Flies were assessed for mortality at 24 h.

acetylcholinesterase = acetylcholinesterase (Musca domestica, UniProt Q7YWJ9); experiment: In vitro inhibition of acetylcholinesterase (Ellman), head homogenate; format: biochemical; conditions: at 1 mM, M. domestica preparation; read-out: inhibition of AChE
Method: Acetylcholinesterase inhibition was conducted on homogenates of whole-body Ae. aegypti and M. domestica heads using Ellman’s method. For Ae. aegypti, 10 whole female adults were placed in 2 mL microcentrifuge screw cap tubes with 3–5.2 mm zircon/silica beads and homogenized in 500 μL of sodium phosphate buffer (100 mM, pH 7.8) using a Precellys Evolution bead beater (Bertin Corp., Rockville, MD, USA) set to two 15-s pulses of 5600 rpm. Afterward, 500 μL of Triton X-100 buffer (100 mM sodium phosphate, pH 7.8, 0.6% Triton X-100) was added to each tube (final Triton X-100 concentration: 0.3%), inverted several times to mix up the sample, and then centrifuged at 10,000× g for 4 min at 4 °C. The supernatant was used as the enzyme source. The same process was carried out with M. domestica, except three heads were processed in a 1000:1000 μL sodium phosphate buffer and Triton X-100 buffer in the same manner as just described.
Concentration responses were conducted in the wells of a 96-well, clear, flat-bottomed plate. Inhibitor solutions of methomyl or monoterpenoids were first dissolved in DMSO (dimethyl sulfoxide) and then diluted in sodium phosphate buffer (100 mM, pH 7.8, DMSO concentration of 1%). A volume of 10 μL of the inhibitor solution was added to each well, along with 90 μL of sodium phosphate buffer, and finally 10 μL of homogenate. This was incubated on a plate shaker at 400 rpm for 10 min at room temperature. The final concentrations for methomyl were 100 μM, 10 μM, 1 μM, 100 nM, 10 nM, 1 nM, and 0 nM. For the monoterpenoids, the same range was used except the top concentration was 1 mM and the bottom non-zero concentration was 10 nM. The final concentration of DMSO in all wells was 0.09%.
After the 10-min incubation, 100 μL of Ellman’s reagent prepared in sodium phosphate buffer and each corresponding inhibitor concentration were added to the wells using a multichannel pipette.
(§1) Dose responses were modeled via probit analysis, and their resulting estimates were obtained. […] A control correction option (OPTC command) was used to account for responses to the vehicle control treatments. Co-toxicity values were calculated by the method of [29]. A co-toxicity factor of >+20 signifies potentiation, <−20 antagonism, and −20 to +20 additive.

Musca domestica [2] = conditions: 24 h, topical, adult females, susceptible strain
Aedes aegypti [3] = conditions: for LD10 (95% CI) / LD90 (95% CI) / LD50 (95% CI): 24 h, topical, adult females, susceptible strain
Aedes aegypti [4] = experiment: Co-toxicity assay with permethrin (topical); conditions: for 1-h knockdown Co-Toxicity Factor / 24-h mortality Co-Toxicity Factor: >+20 potentiation, <−20 antagonism, −20 to +20 additive
Method: (§2) For Ae. aegypti, synergism assays were performed similar to the topical applications described previously, with the following modifications: 2 doses (2 µg/mosquito and 10 µg/mosquito) of each monoterpenoid were applied as synergists, similar to previous studies exploring the synergistic potential of natural products in combination with an intermediate dose-level of insecticide alone.
(§3) Mosquitoes were transferred to deli cups and kept at a controlled temperature and humidity (the same conditions as described for the topical application of insecticides and monoterpenoids alone). Again, a minimum of 3 separate rearing cohorts were used among replicates of each dose combination.
as §1

Aedes aegypti [5] = test system: Aedes aegypti
Method: as §2, §3, §1

[6] = cited from earlier work
rabbit = conditions: cited from earlier work
rat = conditions: in vivo; cited from earlier work
[7] = animal and route not given; cited from earlier work
[8] = 2 μg synergist + permethrin 0.6 ng/mosquito
[9] = 10 μg synergist + permethrin 0.6 ng/mosquito
[10] = 10 μg synergist per Ae. aegypti
[11] = 2 μg synergist + methomyl 6 ng/mosquito
[12] = 2 μg synergist + methomyl, >+20 potentiation, <−20 antagonism, −20 to +20 additive
[13] = 10 μg synergist + methomyl 6 ng/mosquito
[14] = 10 μg synergist + methomyl, >+20 potentiation, <−20 antagonism, −20 to +20 additive

Chain of acetylcholinesterase (Q7YWJ9 81-660): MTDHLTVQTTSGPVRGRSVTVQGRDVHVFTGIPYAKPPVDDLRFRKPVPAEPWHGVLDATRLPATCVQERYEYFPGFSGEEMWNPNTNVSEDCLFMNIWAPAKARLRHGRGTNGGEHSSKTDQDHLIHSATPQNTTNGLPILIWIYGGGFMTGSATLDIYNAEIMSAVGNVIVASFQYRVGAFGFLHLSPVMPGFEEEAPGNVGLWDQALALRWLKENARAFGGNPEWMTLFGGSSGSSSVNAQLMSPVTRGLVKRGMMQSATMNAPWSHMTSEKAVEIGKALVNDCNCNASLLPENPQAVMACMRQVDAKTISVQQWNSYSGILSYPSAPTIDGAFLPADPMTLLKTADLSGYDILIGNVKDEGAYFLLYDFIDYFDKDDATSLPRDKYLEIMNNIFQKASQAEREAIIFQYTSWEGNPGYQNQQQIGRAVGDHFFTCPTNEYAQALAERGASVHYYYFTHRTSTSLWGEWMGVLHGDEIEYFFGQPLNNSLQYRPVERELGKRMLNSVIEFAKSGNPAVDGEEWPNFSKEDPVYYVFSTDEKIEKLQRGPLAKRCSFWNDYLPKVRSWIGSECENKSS

SMILES | 1-h% Mean Knockdown ± SEM, Synergist Alone (Musca domestica [1]) | 24-h% Mean Mortality ± SEM, Synergist Alone (Musca domestica [1]) | 1-h% Mean Knockdown ± SEM, Mixture (Musca domestica [1]) | 1-h knockdown Co-Toxicity Factor (Musca domestica [1]) | 24-h mortality Co-Toxicity Factor (Musca domestica [1]) | LD10 (95% CI) (Musca domestica [2]) | LD90 (95% CI) (Musca domestica [2]) | LD10 (95% CI) (Aedes aegypti [3]) | LD90 (95% CI) (Aedes aegypti [3]) | 1-h% Mean Knockdown ± SEM, Mixture (Aedes aegypti [4]; [8]) | 1-h knockdown Co-Toxicity Factor (Aedes aegypti [4]; 2 μg synergist + permethrin) | 24-h mortality Co-Toxicity Factor (Aedes aegypti [4]; 2 μg synergist + permethrin) | 1-h% Mean Knockdown ± SEM, Synergist Alone (Aedes aegypti [4]; 2 μg synergist per Ae. aegypti) | 24-h% Mean Mortality ± SEM, Synergist Alone (Aedes aegypti [4]; 2 μg synergist per Ae. aegypti) | 1-h% Mean Knockdown ± SEM, Mixture (Aedes aegypti [4]; [9]) | 1-h knockdown Co-Toxicity Factor (Aedes aegypti [4]; 10 μg synergist + permethrin) | 1-h% Mean Knockdown ± SEM, Synergist Alone (Aedes aegypti [4]; [10]) | 24-h% Mean Mortality ± SEM, Synergist Alone (Aedes aegypti [4]; [10]) | 1-h% Mean Knockdown ± SEM, Synergist Alone (Aedes aegypti [5]; 2 μg applied) | 24-h% Mean Mortality ± SEM, Synergist Alone (Aedes aegypti [5]; 2 μg applied) | also measured
CC(C)[C@@H]1CC[C@@H](C)CC1=O [Menthone, L-menthone] | 4 ± 2.4% | 0 ± 0% | 95 ± 2.9% | 12.6 | 48.4 | 5300 (5100–5400) c ng/mg body weight | 8800 (8400–9400) c ng/mg body weight | 5000 (1000–6300) b ng/mg body weight | 10,000 (8500–13,100) c ng/mg body weight | 100 ± 0% | 19.8 | 132 | 7.5 ± 4.8% | 5 ± 2.9% | 100 ± 0% | 13 | 12.5 ± 4.8% | 15 ± 5% | 7.5 ± 4.8% | 5 ± 2.9% | times as potent a synergist of permethrin as PBO (Musca domestica [1]): 0.9; inhibition at 1000 µM (acetylcholinesterase): 3.7 ± 1.2%; times as toxic as fenchone (Aedes aegypti [3]; at LD10): about 1.5; times as toxic as fenchone (Aedes aegypti [3]; at LD50): about 1.5; times as toxic as fenchone (Aedes aegypti [3]; at LD90): about 4.2; 24-h mortality Co-Toxicity Factor (Aedes aegypti [4]; 10 μg synergist + permethrin): 83; times as strong a synergist of permethrin as PBO (Aedes aegypti [4]; 24-h mortality, 2 μg synergist): 5.3; 48-h% Mean Mortality ± SEM, Synergist Alone (Aedes aegypti [5]; 2 μg applied): 7.5 ± 2.5%; 1-h% Mean Knockdown ± SEM, Mixture (Aedes aegypti [5]; [11]): 100 ± 0%; 1-h knockdown Co-Toxicity Factor (Aedes aegypti [5]; [12]): 0; 48-h mortality Co-Toxicity Factor (Aedes aegypti [5]; [12]): 7; 1-h% Mean Knockdown ± SEM, Synergist Alone (Aedes aegypti [5]; 10 μg applied): 12.5 ± 4.8%; 24-h% Mean Mortality ± SEM, Synergist Alone (Aedes aegypti [5]; 10 μg applied): 15 ± 5%; 48-h% Mean Mortality ± SEM, Synergist Alone (Aedes aegypti [5]; 10 μg applied): 22.5 ± 7.5%; 1-h% Mean Knockdown ± SEM, Mixture (Aedes aegypti [5]; [13]): 100 ± 0%; 1-h knockdown Co-Toxicity Factor (Aedes aegypti [5]; [14]): 0; 24-h mortality Co-Toxicity Factor (Aedes aegypti [5]; [14]): 29; 48-h mortality Co-Toxicity Factor (Aedes aegypti [5]; [14]): 7; times as effective a synergist of methomyl as PBO (Aedes aegypti [5]; 24-h mortality, 2 μg synergist): 2.0
CC1(C)C(C=C(Cl)Cl)C1C(=O)OCc1cccc(Oc2ccccc2)c1 (centres unmarked) [Permethrin, reference compound] |  |  |  |  |  | 0.46 (0.37–0.56) a ng/mg body weight | 1.5 (1.4–1.7) a ng/mg body weight | 0.23 (0.12–0.33) a ng/mg body weight | 1.41 (1.08–2.24) a ng/mg body weight |  |  |  |  |  |  |  |  |  |  |  | aerobic soil half-life [6]: 11.6 to 113 days; 1-h% Mean Knockdown ± SEM, Permethrin Alone (Musca domestica [1]; permethrin 18 ng): 80 ± 7.3%; 24-h% Mean Mortality ± SEM, Permethrin Alone (Musca domestica [1]; permethrin 18 ng): 58 ± 10.1%; Dermal LD50 (rabbit; ref 32,33 (L-fenchone), 35,36 (Permethrin), 37 (Methomyl)): 2000 (rb) mg compound per kg body weight; LD50 (95% CI) (Musca domestica [2]): 0.84 (0.79–0.93) a ng/mg body weight; Oral LD50 (rat): 430–4000 (rt) mg compound per kg body weight; LD50 (95% CI) (Aedes aegypti [3]): 0.58 (0.45–0.71) a ng/mg body weight; 1-h% Mean Knockdown ± SEM, Permethrin Alone (Aedes aegypti [4]; permethrin 0.6 ng/mosquito): 76 ± 9.2% and 87.5 ± 6.3%; 24-h% Mean Mortality ± SEM, Permethrin Alone (Aedes aegypti [4]; permethrin 0.6 ng/mosquito): 27.5 ± 4.8%; 24-h% Mean Mortality ± SEM, Permethrin Alone (Aedes aegypti [4]; permethrin 0.6 ng/mosquito, listed as permethrin): 36 ± 6%
Cc1ccc(C(C)C)cc1O [carvacrol] |  |  |  |  |  |  |  |  |  |  |  |  |  |  |  |  |  |  |  |  | LD50 [7]: 2000 to 3000 mg/kg
CCCCOCCOCCOCc1cc2c(cc1CCC)OCO2 [PBO, piperonyl butoxide, reference compound] | 2 ± 2% | 6 ± 2.9% | 96 ± 4% | 16.2 | 55.9 |  |  |  |  | 52.5 ± 7.5% | −44.7 | 25 | 7.5 ± 2.5% | 12.5 ± 6.3% | 60 ± 14.7% | −39 | 22.5 ± 4.8% | 72.5 ± 8.5% | 7.5 ± 2.5% | 12.5 ± 6.3% | 48-h% Mean Mortality ± SEM, Synergist Alone (Aedes aegypti [5]; 2 μg applied): 15 ± 3.4%; 1-h knockdown Co-Toxicity Factor (Aedes aegypti [5]; in vivo): −5.3; 1-h% Mean Knockdown ± SEM, Mixture (Aedes aegypti [5]; in vivo): 90 ± 10%; 24-h mortality Co-Toxicity Factor (Aedes aegypti [5]; in vivo): 14.3; 48-h mortality Co-Toxicity Factor (Aedes aegypti [5]; in vivo): 20.9
CC12CCC(C1)C(C)(C)C2=O [Fenchone, L-fenchone] | 0 ± 0% | 0 ± 0% | 100 ± 0% | 24.0 | 63.4 | 8800 (8100–9400) d ng/mg body weight | 19,900 (18,600–21,600) d ng/mg body weight | 7600 (5000–9500) b ng/mg body weight | 42,000 (28,800–94,900) d ng/mg body weight | 100 ± 0% | 32.0 | 160 | 0 ± 0% | 2.5 ± 2.5% | 100 ± 0% | 16 | 10 ± 4.1% | 2.5 ± 2.5% | 0 ± 0% | 2.5 ± 2.5% | times as potent a synergist of permethrin as PBO (Musca domestica [1]): 1.1; Dermal LD50 (rabbit; in vivo): 5000 (rb) mg compound per kg body weight; inhibition at 1000 µM (acetylcholinesterase): 1.9 ± 0.3%; LD50 (95% CI) (Musca domestica [2]): 13,200 (12,600–13,800) d ng/mg body weight; Oral LD50 (rat): 6160 (rt) mg compound per kg body weight; LD50 (95% CI) (Aedes aegypti [3]): 11,300 (10,200–53,400) d ng/mg body weight; 24-h mortality Co-Toxicity Factor (Aedes aegypti [4]; 10 μg synergist + permethrin): 121; 48-h% Mean Mortality ± SEM, Synergist Alone (Aedes aegypti [5]; 2 μg applied): 7.5 ± 4.8%; 1-h% Mean Knockdown ± SEM, Mixture (Aedes aegypti [5]; [11]): 83.3 ± 3.3%; 1-h knockdown Co-Toxicity Factor (Aedes aegypti [5]; [12]): −5; 24-h mortality Co-Toxicity Factor (Aedes aegypti [5]; [12]): −11; 48-h mortality Co-Toxicity Factor (Aedes aegypti [5]; [12]): −17; 24-h mortality Co-Toxicity Factor (Aedes aegypti [5]; 2 μg synergist + methomyl, >+20 potentiation, <−20 antagonism, −20 to +20 additive, listed as fenchone): negative; 1-h% Mean Knockdown ± SEM, Synergist Alone (Aedes aegypti [5]; 10 μg applied): 10 ± 4.1%; 24-h% Mean Mortality ± SEM, Synergist Alone (Aedes aegypti [5]; 10 μg applied): 2.5 ± 2.5%; 48-h% Mean Mortality ± SEM, Synergist Alone (Aedes aegypti [5]; 10 μg applied): 10 ± 4.1%; 1-h% Mean Knockdown ± SEM, Mixture (Aedes aegypti [5]; [13]): 93.3 ± 6.7%; 1-h knockdown Co-Toxicity Factor (Aedes aegypti [5]; [14]): −4; 24-h mortality Co-Toxicity Factor (Aedes aegypti [5]; [14]): 22; 48-h mortality Co-Toxicity Factor (Aedes aegypti [5]; [14]): 7
CC(C)=C1CC[C@@H](C)CC1=O [pulegone] |  |  |  |  |  |  |  |  |  |  |  |  |  |  |  |  |  |  |  |  | LD50 [7]: 2000 to 3000 mg/kg
